# According to patent publication US9102673B2, “Substituted pyrrolo[3,2-c]pyridines as TrkA kinase inhibitors” (Merck Sharp & Dohme Corp., priority 2011, dated 2015):
# pEC50: −log10 of the molar value.
# Molecular target: T1, TrkA (Homo sapiens, UniProt P04629)
# T1 construct: purchased Cell Signaling
# Experiment: TrkA kinase activity: phosphorylation of a fluorescently labeled peptide substrate (Caliper EZReader II)
# Assay type: biochemical
# Conditions: [E]=0.37 nM, [S]=1 μM, [ATP]=2 mM, room temperature, 3 hours; read-out: Trk A EC50
# Protocol: TrkA kinase activity was measured as the ability of the enzyme to phosphorylate a fluorescently labeled peptide substrate. Buffer salts, reagents, and fluorescently labeled peptides were purchased from Carna Biosciences and were of the highest quality available (QSS Assist TRICA_MSA Kit). Enzyme was purchased from Cell Signaling, and was used without further purification. 384-well round bottom assay plates were prepared by the addition of […] of a DMSO solution of compound at various concentrations to final inhibitor concentrations ranging from 100 μM to 0.2 μM. Next, assay buffer (10 μl) containing substrate and ATP were added, followed by addition of 10 μl of enzyme in assay buffer. Final assays concentrations were: [E]=0.37 nM, [S]=1 μM, [ATP]=2 mM. The reactions were incubated at room temperature for 3 hours resulting in approximately 15% substrate phosphorylation and were terminated by the addition of 5 μl of stop buffer. Substrates and products were separated on the Caliper EZReader II (Caliper LifeSciences, Inc.) using standard separation protocols. The percent inhibition was calculated for each compound concentration and the IC50 was determined using equation 1.
# T1 sequence (P04629 33-796): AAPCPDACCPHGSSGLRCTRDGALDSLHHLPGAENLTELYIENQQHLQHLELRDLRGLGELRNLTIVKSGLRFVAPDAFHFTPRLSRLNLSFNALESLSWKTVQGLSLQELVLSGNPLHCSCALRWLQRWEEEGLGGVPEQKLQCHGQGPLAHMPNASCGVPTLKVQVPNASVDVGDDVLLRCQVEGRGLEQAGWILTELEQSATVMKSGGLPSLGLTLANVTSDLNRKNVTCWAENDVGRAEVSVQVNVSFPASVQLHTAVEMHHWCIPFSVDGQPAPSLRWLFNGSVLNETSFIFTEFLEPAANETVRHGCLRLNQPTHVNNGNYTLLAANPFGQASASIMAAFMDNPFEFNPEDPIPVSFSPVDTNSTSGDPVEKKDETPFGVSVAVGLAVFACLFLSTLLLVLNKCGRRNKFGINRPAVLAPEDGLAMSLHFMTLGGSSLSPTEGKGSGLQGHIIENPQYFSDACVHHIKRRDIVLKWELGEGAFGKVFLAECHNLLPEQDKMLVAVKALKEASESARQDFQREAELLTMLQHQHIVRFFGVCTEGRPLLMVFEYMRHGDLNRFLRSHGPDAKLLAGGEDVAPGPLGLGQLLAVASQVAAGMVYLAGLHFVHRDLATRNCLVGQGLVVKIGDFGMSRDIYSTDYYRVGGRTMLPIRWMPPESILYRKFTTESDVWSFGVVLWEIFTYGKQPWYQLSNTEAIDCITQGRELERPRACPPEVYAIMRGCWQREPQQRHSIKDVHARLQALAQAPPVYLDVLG
row,Compound,pEC50
1,"O=C(O)c1cc2c(-c3cccc4ncccc34)nccc2n1Cc1noc(-c2ccccc2)n1 [Example 16, 1-[(5-phenyl-1,2,4-oxadiazol-3-yl)methyl]-4-(quinolin-5-yl)-1H-pyrrolo[3,2-c]pyridine-2-carboxylic acid]",5.27
2,"CCCNc1ncc(-c2nccc3c2cc(C(=O)O)n3CCOc2ccc(OC(F)(F)F)cc2)s1 [Example 57, 4-[2-(propylamino)-1,3-thiazol-5-yl]-1-{2-[4-(trifluoromethoxy)phenoxy]ethyl}-1H-pyrrolo[3,2-c]pyridine-2-carboxylic acid]",6.79
3,"O=C(O)c1cc2cc(-c3cn[nH]c3)ccc2n1CCOc1ccc(OC(F)(F)F)cc1 [Example 76, 5-(1H-pyrazol-4-yl)-1-{2-[4-(trifluoromethoxy)phenoxy]ethyl}-1H-indole-2-carboxylic acid]",7.55
4,"O=C(O)c1cc2cc(-c3cncnc3)ccc2n1CCOc1ccc(OC(F)(F)F)cc1 [Example 78, 5-pyrimidin-5-yl-1-{2-[4-(trifluoromethoxy)phenoxy]ethyl}-1H-indole-2-carboxylic acid]",7.41
5,"O=C(O)c1cc2cc(-c3cccnc3)ccc2n1CCOc1ccc(OC(F)(F)F)cc1 [Example 81, 5-pyridin-3-yl-1-{2-[4-(trifluoromethoxy)phenoxy]ethyl}-1H-indole-2-carboxylic acid]",6.33

# Next, values leading:
row,pEC50,Compound
1,5.41,"CCOc1cccc(-c2nccc3c2cc(C(=O)O)n3CCOc2ccc(C(F)(F)F)nc2)c1 [Example 38, 4-(3-Ethoxyphenyl)-1-(2-{[6-(trifluoromethyl)Pyridin-3-yl]oxy}ethyl)-1H-pyrrolo[3,2-c]pyridine-2-carboxylic acid]"
2,4.51,"CCCNc1nccc(-c2nccc3c2cc(C(=O)O)n3CCOc2ccc(OC(F)(F)F)cc2)n1 [Example 58, 4-[2-(propylamino)pyrimidin-4-yl]-1-{2-[4-(trifluoromethoxy)phenoxy]ethyl}-1H-pyrrolo[3,2-c]pyridine-2-carboxylic acid]"
3,6.11,"CCOc1cccc(-c2nccc3c2cc(C(=O)O)n3CCOc2ccc(Oc3nccs3)cc2)c1 [Example 73, 4-(3-ethoxyphenyl)-1-{2-[4-(1,3-thiazol-2-yloxy)phenoxy]ethyl}-1H-pyrrolo[3,2-c]pyridine-2-carboxylic acid]"
4,7.46,"CCOc1cccc(-c2nccc3c(CCOc4ccc(OC(F)(F)F)cc4)c(C(=O)O)[nH]c23)c1 [Example 91, 7-(3-ethoxyphenyl)-3-{2-[4-(trifluoromethoxy)phenoxy]ethyl}-1H-pyrrolo[2,3-d]pyridine-2-carboxylic acid]"
5,5.92,"CCOc1cccc(-c2nccn3c(CCOc4ccc(OC(F)(F)F)cc4)c(C(=O)O)nc23)c1 [Example 92, 8-(3-ethoxyphenyl)-3-{2-[4-(trifluoromethoxy)phenoxy]ethyl}imidazo[1,2-a]pyrazine-2-carboxylic acid]"
